Experimental data from PubChem BioAssay AID248 (DTP/NCI, 2004).
Several values for one entry are separate records, joined by “and”; a condition that tells them apart may be missing. Identical values can stand only once. Inconclusive results and toxic doses are left out.

Tested on: L1210 leukemia ip in BDF1 mice, survival T/C
Experiment: NCI In Vivo Anticancer Drug Screen. Data for tumor model L1210 Leukemia (intraperitoneal) in B6D2F1 (BDF1) mice
Details: endpoint: mean survival time, higher = longer survival
Method in brief: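 Read-out is survival time, reported as the treated-group measurement over the vehicle-control measurement.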

[1] = dose: 8.0 mg/kg/injection, schedule: Q04DX003 (ip), vehicle: Klucel (hydroxypropylcellulose) (HPC)
[2] = dose: 12.5 mg/kg/injection, schedule: Q01DX009 (ip), vehicle: Klucel (hydroxypropylcellulose) (HPC)
[3] = dose: 18.0 mg/kg/injection, schedule: Q04DX003 (ip), vehicle: Klucel (hydroxypropylcellulose) (HPC)
[4] = dose: 25.0 mg/kg/injection, schedule: Q04DX003 (ip), vehicle: Klucel (hydroxypropylcellulose) (HPC)
[5] = dose: 100.0 mg/kg/injection, schedule: Q04DX002 (ip), vehicle: Klucel (hydroxypropylcellulose) (HPC)
[6] = dose: 200.0 mg/kg/injection, schedule: Q04DX002 (ip), vehicle: Klucel (hydroxypropylcellulose) (HPC)
[7] = dose: 400.0 mg/kg/injection, schedule: Q04DX002 (ip), vehicle: Klucel (hydroxypropylcellulose) (HPC)
[8] = dose: 100.0 mg/kg/injection, schedule: Q04DX003 (ip), vehicle: Klucel (hydroxypropylcellulose) (HPC)
[9] = dose: 200.0 mg/kg/injection, schedule: Q04DX003 (ip), vehicle: Klucel (hydroxypropylcellulose) (HPC)
[10] = dose: 400.0 mg/kg/injection, schedule: Q04DX003 (ip), vehicle: Klucel (hydroxypropylcellulose) (HPC)
[11] = dose: 50.0 mg/kg/injection, schedule: Q01DX009 (ip), vehicle: Klucel (hydroxypropylcellulose) (HPC)
[12] = dose: 100.0 mg/kg/injection, schedule: Q01DX009 (ip), vehicle: Klucel (hydroxypropylcellulose) (HPC)
[13] = dose: 200.0 mg/kg/injection, schedule: Q01DX009 (ip), vehicle: Klucel (hydroxypropylcellulose) (HPC)
[14] = dose: 100.0 mg/kg/injection, schedule: Q01DX009 (ip), vehicle: saline with Tween-80
[15] = dose: 200.0 mg/kg/injection, schedule: Q01DX009 (ip), vehicle: saline with Tween-80
[16] = dose: 400.0 mg/kg/injection, schedule: Q01DX009 (ip), vehicle: saline with Tween-80
[17] = dose: 100.0 mg/kg/injection, schedule: Q01DX001 (ip), vehicle: saline
[18] = dose: 200.0 mg/kg/injection, schedule: Q01DX001 (ip), vehicle: saline
[19] = dose: 400.0 mg/kg/injection, schedule: Q01DX001 (ip), vehicle: saline
[20] = dose: 25.0 mg/kg/injection, schedule: Q01DX009 (ip), vehicle: Klucel (hydroxypropylcellulose) (HPC)
[21] = dose: 100.0 mg/kg/injection, schedule: Q01DX001 (ip), vehicle: Klucel (hydroxypropylcellulose) (HPC)

## CC[NH-].CC[NH-].[Cl][Pt+2][Cl]
dose: 0.75 mg/kg/injection, schedule: Q01DX009 (ip), vehicle: other
  T/C: 106 % of control
dose: 1.5 mg/kg/injection, schedule: Q01DX001 (ip), vehicle: other
  T/C: 101 % of control
dose: 1.5 mg/kg/injection, schedule: Q01DX009 (ip), vehicle: other
  T/C: 118 % of control
dose: 2.6 mg/kg/injection, schedule: Q01DX009 (ip), vehicle: Klucel (hydroxypropylcellulose) (HPC)
  T/C: 108 % of control and 114 % of control
dose: 3.0 mg/kg/injection, schedule: Q01DX001 (ip), vehicle: other
  T/C: 106 % of control
dose: 3.0 mg/kg/injection, schedule: Q01DX009 (ip), vehicle: other
  T/C: 124 % of control
dose: 4.0 mg/kg/injection, schedule: Q01DX009 (ip), vehicle: Klucel (hydroxypropylcellulose) (HPC)
  T/C: 108 % of control and 119 % of control
dose: 5.0 mg/kg/injection, schedule: Q04DX003 (ip), vehicle: Klucel (hydroxypropylcellulose) (HPC)
  T/C: 107 % of control
dose: 6.0 mg/kg/injection, schedule: Q01DX009 (ip), vehicle: Klucel (hydroxypropylcellulose) (HPC)
  T/C: 115 % of control and 119 % of control
[1]
  T/C: 110 % of control
dose: 9.0 mg/kg/injection, schedule: Q01DX009 (ip), vehicle: Klucel (hydroxypropylcellulose) (HPC)
  T/C: 107 % of control
dose: 12.0 mg/kg/injection, schedule: Q01DX001 (ip), vehicle: other
  T/C: 121 % of control
[2]
  T/C: 119 % of control
[3]
  T/C: 117 % of control
[4]
  T/C: 90 % of control

## CC(=O)c1ccc(O)cc1
[5]
  T/C: 114 % of control
[6]
  T/C: 96 % of control
[7]
  T/C: 96 % of control

## CN(C)C(=O)c1cc(NC(=O)Nc2ccc(C3=NCCN3)cc2)cc(NC(=O)Nc2ccc(C3=NCCN3)cc2)c1
dose: 15.0 mg/kg/injection, schedule: Q01DX Z (ip), vehicle: saline
  T/C: 158 % of control
dose: 30.0 mg/kg/injection, schedule: Q01DX Z (ip), vehicle: saline
  T/C: 222 % of control
dose: 60.0 mg/kg/injection, schedule: Q01DX Z (ip), vehicle: saline
  T/C: 250 % of control

## O=C1OCCC1n1cc(F)c(=O)[nH]c1=O (stereo unspecified)
[8]
  T/C: 102 % of control
[9]
  T/C: 98 % of control
[10]
  T/C: 96 % of control

## Cc1[nH]c2ccc([N+](=O)[O-])cc2c(=O)c1[N+](=O)[O-] (tested in a mixture with another compound)
[11]
  T/C: 94 % of control
[12]
  T/C: 87 % of control
[13]
  T/C: 105 % of control

## CC(=O)Nc1ccc(NC(=O)Nc2cc(C)ccc2C)cc1
dose: 25.0 mg/kg/injection, schedule: Q04DX003 (ip), vehicle: saline with Tween-80
  T/C: 91 % of control
dose: 50.0 mg/kg/injection, schedule: Q04DX003 (ip), vehicle: saline with Tween-80
  T/C: 89 % of control
dose: 100.0 mg/kg/injection, schedule: Q01DX001 (ip), vehicle: saline with Tween-80
  T/C: 91 % of control
[14]
  T/C: 92 % of control and 86 % of control
dose: 100.0 mg/kg/injection, schedule: Q04DX002 (ip), vehicle: saline with Tween-80
  T/C: 90 % of control and 91 % of control
dose: 100.0 mg/kg/injection, schedule: Q04DX003 (ip), vehicle: saline with Tween-80
  T/C: 91 % of control
dose: 200.0 mg/kg/injection, schedule: Q01DX001 (ip), vehicle: saline with Tween-80
  T/C: 89 % of control
[15]
  T/C: 99 % of control and 91 % of control
dose: 200.0 mg/kg/injection, schedule: Q04DX002 (ip), vehicle: saline with Tween-80
  T/C: 87 % of control and 90 % of control
dose: 400.0 mg/kg/injection, schedule: Q01DX001 (ip), vehicle: saline with Tween-80
  T/C: 89 % of control
[16]
  T/C: 92 % of control and 100 % of control
dose: 400.0 mg/kg/injection, schedule: Q04DX002 (ip), vehicle: saline with Tween-80
  T/C: 89 % of control and 91 % of control
dose: 400.0 mg/kg/injection, schedule: Q04DX003 (ip), vehicle: saline with Tween-80
  T/C: 87 % of control

## C/C(=C\COC1CCCCO1)CCC1OC1(C)C (stereo unspecified)
[17]
  T/C: 103 % of control
dose: 100.0 mg/kg/injection, schedule: Q01DX009 (ip), vehicle: saline
  T/C: 108 % of control
[18]
  T/C: 100 % of control
dose: 200.0 mg/kg/injection, schedule: Q01DX009 (ip), vehicle: saline
  T/C: 98 % of control
[19]
  T/C: 100 % of control
dose: 400.0 mg/kg/injection, schedule: Q01DX009 (ip), vehicle: saline
  T/C: 101 % of control

## CC(C)CCCC(C)C1CCC2C3CC=C4CC(OP(=O)(N5CC5)N5CC5)CCC4(C)C3CCC12C (stereo unspecified)
dose: 50.0 mg/kg/injection, schedule: Q01DX001 (sc), vehicle: steriod suspending solution
  T/C: 102 % of control
dose: 100.0 mg/kg/injection, schedule: Q01DX001 (sc), vehicle: steriod suspending solution
  T/C: 96 % of control
dose: 200.0 mg/kg/injection, schedule: Q01DX001 (sc), vehicle: steriod suspending solution
  T/C: 94 % of control
dose: 400.0 mg/kg/injection, schedule: Q01DX001 (sc), vehicle: steriod suspending solution
  T/C: 89 % of control

## Cc1ccc(S(=O)(=O)NC(CSCc2ccccc2)C(=O)O)cc1 (stereo unspecified)
[14]
  T/C: 92 % of control
[15]
  T/C: 101 % of control

## CC(=O)C(CCC#N)C(C)=O.CC(=O)C(CCC#N)C(C)=O.[Cu]
dose: 6.25 mg/kg/injection, schedule: Q01DX009 (ip), vehicle: Klucel (hydroxypropylcellulose) (HPC)
  T/C: 95 % of control
[2]
  T/C: 98 % of control
dose: 12.5 mg/kg/injection, schedule: Q04DX003 (ip), vehicle: Klucel (hydroxypropylcellulose) (HPC)
  T/C: 90 % of control
[20]
  T/C: 87 % of control
[4]
  T/C: 91 % of control

## CSc1nc(SC)c(Cl)c(C(Cl)Cl)n1
[8]
  T/C: 98 % of control
[9]
  T/C: 94 % of control
[10]
  T/C: 102 % of control

## CC(C)(C)/C([O-])=N/[N+](C)(C)C
[17]
  T/C: 108 % of control
[18]
  T/C: 97 % of control
[19]
  T/C: 101 % of control

## CC1(C2C3OC(=O)C2C2(O)CC4OC45C(=O)OC3C25C)CO1 (stereo unspecified)
[20]
  T/C: 92 % of control
[11]
  T/C: 104 % of control
[12]
  T/C: 95 % of control

## NC1=NC(c2ccccc2)N(c2ccccc2Cl)C(N)=N1 (stereo unspecified)
dose: 75.0 mg/kg/injection, schedule: Q01DX001 (ip), vehicle: Klucel (hydroxypropylcellulose) (HPC)
  T/C: 97 % of control
dose: 150.0 mg/kg/injection, schedule: Q01DX001 (ip), vehicle: Klucel (hydroxypropylcellulose) (HPC)
  T/C: 94 % of control

## Cc1cc(Br)ccc1N
[14]
  T/C: 99 % of control
[15]
  T/C: 95 % of control
[16]
  T/C: 99 % of control

## O=C(NCCCCN1CC1)C(=O)NCCCCN1CC1
dose: 1.5 mg/kg/injection, schedule: Q04DX003 (ip), vehicle: Klucel (hydroxypropylcellulose) (HPC)
  T/C: 108 % of control
dose: 3.0 mg/kg/injection, schedule: Q04DX003 (ip), vehicle: Klucel (hydroxypropylcellulose) (HPC)
  T/C: 118 % of control
[1]
  T/C: 155 % of control
[3]
  T/C: 177 % of control

## CCOP(=O)(CCN(C(C)C)C(C)C)OCC
[11]
  T/C: 100 % of control
[12]
  T/C: 100 % of control
[8]
  T/C: 88 % of control
[13]
  T/C: 93 % of control

## CCOC(=O)c1[nH]c2ccsc2c1CN1CCCCC1
dose: 50.0 mg/kg/injection, schedule: Q01DX001 (ip), vehicle: Klucel (hydroxypropylcellulose) (HPC)
  T/C: 93 % of control
[21]
  T/C: 101 % of control

## CCN(CC)CCN1C(=O)C(c2ccccc2)C2(CCN(C)CC2)C1=O (stereo unspecified)
[17]
  T/C: 101 % of control
[18]
  T/C: 105 % of control
[19]
  T/C: 97 % of control

## O=C(Nc1ccccn1)Nc1cc(C(F)(F)F)ccc1Cl
[21]
  T/C: 98 % of control
[12]
  T/C: 95 % of control and 90 % of control
[5]
  T/C: 95 % of control and 103 % of control
[8]
  T/C: 108 % of control
dose: 200.0 mg/kg/injection, schedule: Q01DX001 (ip), vehicle: Klucel (hydroxypropylcellulose) (HPC)
  T/C: 91 % of control
[13]
  T/C: 92 % of control
[6]
  T/C: 98 % of control and 103 % of control
[9]
  T/C: 97 % of control
dose: 400.0 mg/kg/injection, schedule: Q01DX001 (ip), vehicle: Klucel (hydroxypropylcellulose) (HPC)
  T/C: 98 % of control
dose: 400.0 mg/kg/injection, schedule: Q01DX009 (ip), vehicle: Klucel (hydroxypropylcellulose) (HPC)
  T/C: 95 % of control
[7]
  T/C: 93 % of control and 97 % of control
[10]
  T/C: 96 % of control
